These results are taken from US5468728A, “Use of orally absorbable motilin preparations to enhance motility of digestive tract” (Sanwa Kagaku Kenkyusho Co., Ltd., priority 1991, dated 1995).

The test system of this assay is intestinal tracts. As to the kind of experiment: Contraction of the intestinal tracts in dogs by the balloon method, intravenous and nasal administration. The assay is classed as in vivo. An excerpt: L-leucine-13-motilin (A) and L-leucine-13-motilin-homoserin (B) were administrated to dogs through an intravenous route ([…]) by the ballon method to determine their activities on the contraction of the intestinal tracts, and the action of the surface active agent on promoting the absorption of the active substances administrated through a nasal administration was estimated in terms of percentage relative to the activity--100%-- of L-leucine-13-motilin administrated through an intravenous route on the contraction.
L-leucine-13-motilin-homoserine and L-leucine-13-motilin were each dissolved in purified water to prepare an aqueous solution, which was then aseptically poured into a vial in such a way that it contained the active substance in an amount of 1 mg when calculated as polypeptide. Each vial was finally sealed together and freeze-dried. For use, this vial is dissolved in physiological saline for injection.

[1] abbreviates: Intravenous Administration (2.0 μg/kg/hr).
The mark [2] stands for this setting: Nasal Administration (100 μg/kg/hr), Control = injection preparation without surface active agent.

As for L-leucine-13-motilin [A], the “activity on the contraction of the intestinal tracts, percentage relative to L-leucine-13-motilin intravenous (100%)” value by setting is: under setting [1], 100 ± 0%; under setting [2], “No activity found”.

As for L-leucine-13-motilin-homoserine [B], the “activity on the contraction of the intestinal tracts, percentage relative to L-leucine-13-motilin intravenous (100%)” value under setting [1] is on record as 115 ± 5% and the “activity on the contraction of the intestinal tracts, percentage relative to L-leucine-13-motilin intravenous (100%)” value under setting [2] is given as ≤ 30%.
